Data taken from patent publication US20120128654A1, “Allantoin Administration for the Treatment of Neurodegenerative Disease and Neurotrauma” (UNIVERSITY OF CINCINNATI, priority 2009, published 2012).

Legend:
striatal 6-OHDA infusion = conditions: peripheral adenosine, Wistar rats; cited from earlier work
nigral THir neurons = experiment: Unbiased stereological counts of THir cells in the substantia nigra after striatal 6-OHDA; format: in vivo, Sprague Dawley rats; conditions: experiment 2, KO alone vs control pellet, 4 weeks post-6-OHDA
Experimental: Rats were anesthetized prior to surgery with Equi-Thesin (0.3 ml/100 g body weight i.p.; chloral hydrate 42.5 mg/ml+sodium pentobarbital 9.72 mg/ml), their heads shaved, and then they were placed in a stereotaxic frame. Their skin was swabbed with Betadyne followed by 70% ETOH. The scalp was then opened to expose the skull. Two 1 mm holes were drilled into the skull and rats were injected in two sites in the striatum with 6-OHDA (MP Biomedicals, Solon, Ohio; 5 μg/μl 6-OHDA in 0.2% ascorbic acid, 0.9% saline solution). The coordinates for these injections were AP −1.6 mm, ML +2.4 mm, DV −4.2 mm and AP −0.2 mm, +ML 2.6 mm, DV −7.0 mm. The needle was zeroed at the skull directly above the injection site in order to target the DV coordinate. For each injection, the needle was lowered slowly to the injection site and 1 minute elapsed before injection commenced, 6-OHDA was injected at 0.5 μl/minute and at the end of the injection the needle was held in place for an additional 2 minutes prior to retraction. The wound area was cleaned with Betadine solution and the scalp was closed with surgical wound clips. This lesion paradigm results in a progressive loss of TH phenotype and frank DA cell death.
Animals were deeply anesthetized (60 mg/kg, pentobarbital, i.p.) and perfused intracardially with warm 0.9% saline containing 1 ml/L 10,000 USP heparin followed by ice-cold 0.9% saline. For immunoshistochemistry brains were removed, post fixed for 24 hours in 4% paraformaldehyde and transferred to 30% sucrose in 0.1M PO4 buffer. For determination of purine levels brains were immediately removed and flash frozen in 3-methyl butane. Brains were stored at −80° C. until analysis.
Brains were frozen on dry ice and sectioned at a 40 μm thickness using a sliding microtome. Every sixth section through the SN was processed for labeling with antisera against TH. Following blocking in 10% normal goat serum, tissue was incubated in primary antisera directed against TH (Chemicon MAB318, mouse anti TH 1:4,000) overnight at room temperature. Following primary incubation, sections were incubated in biotinylated secondary antisera against mouse IgG (Chemicon AP124B, 1:400) followed by the Vector ABC detection kit employing horseradish peroxidase (Vector Laboratories, Burlingame, Calif.). Antibody labeling was visualized by exposure to 0.5 mg/ml 3,3′ diaminobenzidine (DAB) and 0.03% H2O2 in Tris buffer. Sections were mounted on subbed slides, dehydrated to xylene and coverslipped with Cytoseal (Richard-Allan Scientific, Waltham, Mass.).
Unbiased stereological counts of THir cells were performed using a BX52 Olympus microscope (Olympus America Inc.) interfaced with Microbrightfield stereological software and a Microfire CCD camera (Optronics, Goleta, Calif.). Utilizing 2 μm guard zones and a 50 μm×50 μm counting frame a grid size of 112 μm×183 μm was employed to assure that all coefficient of error values were ≦0.10. Using the optical fractionator principle, the regions of interest were individually outlined under a low magnification (1.25×). Using a 60× magnification lens with a 1.4 N/A the section thickness was empirically determined by first bringing the top of the section into focus and then using Microbrightfield software to step through the z-axis in 1 μm increments until the very bottom of the section was in focus. […]

Row | Structure (SMILES) | neuroprotection against striatal 6-OHDA infusion (striatal 6-OHDA infusion) | number of THir neurons in either the intact or lesioned SN (nigral THir neurons)
1 | Nc1ncnc2c1ncn2[C@@H]1O[C@H](CO)[C@@H](O)[C@H]1O [adenosine] | functional neuroprotection | 
2 | O=C([O-])c1nc(=O)[nH]c(=O)[nH]1.[K+] [KO, potassium oxonate] |  | no significant impact
